Values after ≈ are worked out from the molar mass of the structure shown. Structures can show the parent of a compound that is named as a salt. Where two headings read alike, the source gives them in different places.
Key:
[1] = cited from earlier work
[2] = Solubility of kynurenic acid and its sodium salt; format: physicochemical; conditions: water, converted from 100 mM, read-out: solubility in water, corresponding value

Compound	solubility in 1.0 M NaOH ([1]; alkaline conditions, 1.0 M NaOH) [mg/mL]	solubility in water [1] [mg/mL]	solubility [2] [mg/mL]	solubility in water ([1]; sodium salt) [mM]
O=C(O)c1cc(=O)c2ccccc2[nH]1 [kynurenic acid]	50 (≈ 264 mM)	0.95	–	–
O=C(O)c1cc(=O)c2ccccc2[nH]1 [sodium salt]	–	–	21	100
